Experimental data published in patent US7084144B2, “Sulfonyl group containing compounds and their use for the treatment of erectile dysfunction” (The Jordanian Pharmaceutical MFG & Medical Equipment CO LTD, priority 2000, dated 2006).
Entries after “also recorded” stand apart in the source; their conditions may differ. Each block holds one compound with its values, some of them ahead of it.

Legend:
male rats = assay: Penile erection (responding rats, PEI, ED50) in male rats after oral administration; type: in vivo, rat; conditions: for PEI (penile erection indexes) for selected molecules: Tables 4-6, dose not given; for PEI (penile erection index) / responding rats % / Calculated ED50: male rats, oral; for PEI (penile erection index) / responding rats %: 10 rats used, 2 hours observation; for Calculated ED50: responding rats as a function of dose
Experimental: The purpose of the study was to compare the biological activity of compound 1 of the present invention with that of sildenafil. In particular, the respective ED50 value (ED=effective dose), erection episodes and penile erection indexes of said compounds in the treatment of male rats were determined. The penile erection index is an established means of determining the erection promoting properties of a substance (see e.g. Benassi-Benelli, F., Ferari, F., and Pellegrini Quaratotti, B., Arch. Int. Pharmacodyn., 242, 241–247, (1979), and Ang. H. H., Sim, M. K., Pharm. Sci., 3, 17–119, (1997) and references cited therein).
In these experiments, compound 1 of the present invention and sildenafil were administered to male rats orally. The doses for sildenafil were 0.0781, 0.1562, 0.3125 and 0.625 mg/kg body weight, while doses for compound 1 of the present invention were 0.3, 0.6, 1, and 2 mg/kg body weight. Both sildenafil and compound 1 of the present invention were dissolved in distilled water. Control animals were administered with water. During the experiments, the rats were placed in glass cages for observation and had free access to food and water. During 2 hours after administration of the investigated compound, the penile erection and self-sucking were monitored.

[1] = test system: cAMP accumulation in isolated rabbit corpus carvenosum tissue; assay: cAMP accumulation in isolated rabbit corpus carvenosum tissue (ELISA); type: cell-based, White New Zealand rabbits; conditions: absence of NO donor, FIG. 2; for effect on the accumulation of cAMP levels: up to 20,000 nM
Experimental: (§1) Method for Analysis of cGMP & cAMP Synthesis and Accumulation in Penile Tissues: White New Zealand rabbits were sacrificed. Excise the penises rapidly after killing the animals, remove epidermal & connective tissue. Dissect out and discard the urethra carefully. Cut the penises longitudinally into 2 equal strips and then laterally to give about 20–40 segments. Pool and incubate the segments of the corpus cavernosum in Dulbecco's minimum essential Medium (MEM) at room temperature for one hour to allow the tissues to recover from preparative handling. Effect of Drug on cGMP and cAMP Formation:
(§2) Place one penile segment in triplicate for each drug dose in 200 μl MEM. Place one penile segment in triplicate for each drug dose with 10 μM SNP (sodium nitroprusside) in 200 μl MEM. (in the case of cGMP). Incubate the tubes at 37° C. for 30 min, stop the reaction by adding 200 μl of 1 mol/l perchloric acid and sonicate for 5 min. Neutralize the aliquots with 0.5 mol/l K3PO4.3H2O to pH 6.2 (240 μl), centrifuge and take the supernatant in aliquots. Keep at 4° C. and assay for the concentrations of cAMP and cGMP in the extract using ELISA (enzyme linked immunosorbant assay). Preparation of Zero sample: Add 200 ul MEM, 200 ul 1M perchloric acid and 240 μl 0.5 mol/L K3PO4.3H2O in one tube.
(§3) The main concentrations were in the range 0–20,000 or 100,000 nM. A stock solution of 1 mM for both drugs were prepared in distilled water. Serial dilution were prepared in MEM giving working drug concentrations of 0, 1000, 4000, 8000, 10000, 20000 and 100000 nM. In the case of cGMP the tests were carried out with and without NO donor (SNP). For this purpose 10 μM SNP was included when necessary.

[2] = test system: cGMP accumulation in isolated rabbit corpus carvenosum tissue; assay: cGMP accumulation in isolated rabbit corpus carvenosum tissue (ELISA), with and without NO donor SNP; type: cell-based, White New Zealand rabbits; conditions: FIG. 1; for effect on the levels of cGMP: absence of NO donor, tested concentrations up to 100,000 nM
Experimental: as §1, §2, §3

SMILES: Cc1ccc(S(=O)(=O)N2CCN(C)CC2)cc1 [R0=—CH3; R1=—CH3 (Table 4)]
PEI (penile erection indexes) for selected molecules (male rats): 240

melting point: 137 to 138 °C
SMILES: CN1CCN(S(=O)(=O)c2ccc3c(c2)OCO3)CC1 [Compound 1]
PEI (penile erection indexes) for selected molecules (male rats): 1015 | PEI (penile erection index) (male rats; dose 0.3 mg/kg): 22.5 | responding rats % (male rats; dose 0.3 mg/kg): 15% | PEI (penile erection index) (male rats; dose 0.6 mg/kg): 260 | responding rats % (male rats; dose 0.6 mg/kg): 40% | PEI (penile erection index) (male rats; dose 1.0 mg/kg): 665 | responding rats % (male rats; dose 1.0 mg/kg): 70% | PEI (penile erection index) (male rats; dose 2.0 mg/kg): 1020 | responding rats % (male rats; dose 2.0 mg/kg): 85% | Calculated ED50 (male rats): ^(3)Calculated ED50 = 0.7822 mg/kg body weight | effect on the accumulation of cAMP levels [1]: no effect at all | concentration giving maximum increase of cGMP levels ([2]; NO donor added (10 μM SNP)): about 4000 nM | effect on cGMP accumulation compared with sildenafil ([2]; NO donor added (10 μM SNP), at 10,000 nM): better effect than sildenafil | effect on the levels of cGMP [2]: very little effect; also recorded: weak effect

SMILES: CCCc1nn(C)c2c(=O)[nH]c(-c3cc(S(=O)(=O)N4CCN(C)CC4)ccc3OCC)nc12 [Sildenafil, sildenafil, reference compound]
PEI (penile erection index) (male rats; dose 0.0781 mg/kg): 90 | responding rats % (male rats; dose 0.0781 mg/kg): 30% | PEI (penile erection index) (male rats; dose 0.1562 mg/kg): 150 | responding rats % (male rats; dose 0.1562 mg/kg): 30% | PEI (penile erection index) (male rats; dose 0.3125 mg/kg): 350 | responding rats % (male rats; dose 0.3125 mg/kg): 50% | PEI (penile erection index) (male rats; dose 0.625 mg/kg): 980 | responding rats % (male rats; dose 0.625 mg/kg): 70% | Calculated ED50 (male rats): ^(2)Calculated ED50 = 0.2473 mg/kg body weight | concentration giving maximum increase in cAMP levels [1]: 8000–10,000 nM | effect on the accumulation of cAMP levels [1]: remarkable increase | concentration giving maximum increase of cGMP levels ([2]; NO donor added (10 μM SNP)): about 10,000 nM | effect on the levels of cGMP [2]: very little effect; also recorded: almost flat effect

SMILES: Cc1ccc(S(=O)(=O)NN2CCN(C)CC2)cc1 [R0=—CH3; R1=—CH3; n=0 (Table 6)]
PEI (penile erection indexes) for selected molecules (male rats): 90

SMILES: CN1CCN(NS(=O)(=O)c2ccccc2)CC1 [R0=—CH3; R1=—H; n=0 (Table 6)]
PEI (penile erection indexes) for selected molecules (male rats): 80

SMILES: CN1CCN(S(=O)(=O)c2ccccc2)CC1 [R0=—CH3; R1=—H (Table 4)]
PEI (penile erection indexes) for selected molecules (male rats): 420
